# Data from patent publication US11014966B2, “Compounds and therapeutics uses thereof” (priority 2016, dated 2021).
# What was measured:
# E. coli K12 [1] = type: cell-based; settings: 20 μM compound, human IgM M86 antibody 25 μg/mL, FC500, Method 1
# Method: Antibody Recruitment Assay by Flow Cytometry Using Anti-Alpha-Galactosyl IgM Antibody
# A secondary FITC labelled anti-human IgM antibody was used to detect binding of anti-alpha-galactosyl to the compound.
# (§1) The assays were carried out in polystyrene 96-well U bottom plates (Costar). The 96-well plates were pre-blocked with casein blocking buffer (Thermo Fisher 37528) and then washed three times with (HBSS+/+) (Life Technologies 14025-050) prior to assay. E. coli K12 (Public Health England, NCTC 10538) were grown in LB broth (Fisher BP1426-500) to late exponential phase. Subsequently, the bacteria were centrifuged at 10 000 rpm for 5 minutes and resuspended in HBSS+/+ at a bacterial density of 2*10^9 CFU/mL. […] After a final wash of 3×200 μL HBSS+/+ the bacteria were resuspended in 200 μL HBSS+/+ and evaluated on a FC500 (Beckman Coulter). Bacteria were live gated in the FL-4 channel and median fluorescent shift was recorded in the FL-1 channel. Data from all samples were analysed in the Kaluza software package (Beckman Coulter). […]
# (§2) The fold shift over background was calculated by dividing the Median Fluorescent Intensity obtained in the presence 20 μM Examples by the Median Fluorescence Intensity obtained in the absence of Examples. The shift in fluorescence intensity (FITC) occurs due to the binding event at each end of the molecule.
# E. coli K12 [2] = type: cell-based; settings: 20 μM compound, anti-alpha galactosyl IgG purified from human IVIG, 42 μg/mL
# Method: Antibody Recruitment Assay by Flow Cytometry Using Anti Alpha-Galactosyl IgG Antibody
# A secondary FITC labelled anti-human IgG antibody was used to detect binding of alpha-galactosyl to the compound.
# as §1, with “and resuspended HBSS+/+ at” for “and resuspended in HBSS+/+ at”
# as §2
smiles,measurement,setting,value
CCCCCCCCC(=O)N[C@@H](CCNC(=O)c1cc(OCC(=O)NCCCO[C@@H]2OC(CO)[C@@H](O[C@@H]3OC(CO)[C@H](O)C(O[C@H]4OC(CO)[C@H](O)C(O)C4O)C3O)C(O)C2NC(C)=O)cc(-c2cc(OCC(=O)NCCCO[C@@H]3OC(CO)[C@@H](O[C@@H]4OC(CO)[C@H](O)C(O[C@H]5OC(CO)[C@H](O)C(O)C5O)C4O)C(O)C3NC(C)=O)cc(OCC(=O)NCCCO[C@@H]3OC(CO)[C@@H](O[C@@H]4OC(CO)[C@H](O)C(O[C@H]5OC(CO)[C@H](O)C(O)C5O)C4O)C(O)C3NC(C)=O)c2)c1)C(=O)N[C@H](C(=O)N[C@@H](CCN)C(=O)N[C@H]1CCNC(=O)[C@H]([C@@H](C)O)NC(=O)[C@H](CCN)NC(=O)[C@H](CCN)NC(=O)[C@H](CC(C)C)NC(=O)[C@@H](Cc2ccccc2)NC(=O)[C@H](CCN)NC1=O)[C@@H](C)O (some centres unmarked) [Example 10],Anti-alpha galactosyl IgM recruitment at 20 μM (Median Fold shift over vehicle),E. coli K12 [1],2 fold
same,Anti-alphagalactosyl IgG recruitment at 20 μM (Median Fold shift over vehicle),E. coli K12 [2],1 fold
